# PubChem BioAssay (NCI)
#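 At the GI50, growth is halved. TGI is the concentration that stops growth completely.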
# Tests used:
# Experiment in all cases: NCI anticancer screen, dose series, 384-well format
# HCT-116 colon = test system: HCT-116 colon
# KM12 colon = test system: KM12 colon
# SK-MEL-2 melanoma = test system: SK-MEL-2 melanoma
# LOX IMVI melanoma = test system: LOX IMVI melanoma
# RXF 393 renal = test system: RXF 393 renal
# NCI-H23 lung = test system: NCI-H23 lung
# HOP-92 NSCLC = test system: HOP-92 NSCLC
# HCC-2998 colon = test system: HCC-2998 colon
# OVCAR-3 ovarian = test system: OVCAR-3 ovarian
# PC-3 prostate = test system: PC-3 prostate
# OVCAR-4 ovarian = test system: OVCAR-4 ovarian
# DU-145 prostate = test system: DU-145 prostate
# SF-539 CNS = test system: SF-539 CNS
# SK-MEL-28 melanoma = test system: SK-MEL-28 melanoma
# CCRF-CEM leukemia = test system: CCRF-CEM leukemia
# SN12C renal = test system: SN12C renal
# UO-31 renal = test system: UO-31 renal
# HOP-62 NSCLC = test system: HOP-62 NSCLC
# SR leukemia = test system: SR leukemia
# OVCAR-8 ovarian = test system: OVCAR-8 ovarian
# HCT-15 colon = test system: HCT-15 colon
# NCI-H522 lung = test system: NCI-H522 lung
# MALME-3M melanoma = test system: MALME-3M melanoma
# SK-MEL-5 melanoma = test system: SK-MEL-5 melanoma
# 786-0 renal = test system: 786-0 renal
# MDA-MB-231 breast = test system: MDA-MB-231 breast
# CAKI-1 renal = test system: CAKI-1 renal
# OVCAR-5 ovarian = test system: OVCAR-5 ovarian
# NCI/ADR-RES ovarian = test system: NCI/ADR-RES ovarian
# NCI-H322M lung = test system: NCI-H322M lung
# MDA-MB-435 melanoma = test system: MDA-MB-435 melanoma
# UACC-257 melanoma = test system: UACC-257 melanoma
# U251 glioblastoma = test system: U251 glioblastoma
# NCI-H226 lung = test system: NCI-H226 lung
# MCF7 breast = test system: MCF7 breast
# A498 renal = test system: A498 renal
# RPMI-8226 leukemia = test system: RPMI-8226 leukemia
# SW-620 colon = test system: SW-620 colon
# IGROV1 ovarian = test system: IGROV1 ovarian
# MDA-MB-468 breast = test system: MDA-MB-468 breast
# A549 NSCLC = test system: A549 NSCLC
# K-562 leukemia = test system: K-562 leukemia
# M14 melanoma = test system: M14 melanoma
# COLO 205 colon = test system: COLO 205 colon
# NCI-H460 NSCLC = test system: NCI-H460 NSCLC
# ACHN renal = test system: ACHN renal
# SF-295 CNS = test system: SF-295 CNS
# SK-OV-3 ovarian = test system: SK-OV-3 ovarian
# TK-10 renal = test system: TK-10 renal
# HL-60(TB) leukemia = test system: HL-60(TB) leukemia
# SF-268 CNS = test system: SF-268 CNS
# MOLT-4 leukemia = test system: MOLT-4 leukemia
# HT29 colon = test system: HT29 colon
# T-47D breast = test system: T-47D breast
# SNB-19 CNS = test system: SNB-19 CNS
# BT-549 breast = test system: BT-549 breast
# UACC-62 melanoma = test system: UACC-62 melanoma
smiles,measurement,setting,value
NCCCC[C@@H]1NC(=O)[C@H](CC(=O)O)NC(=O)CNC(=O)[C@H](CCCN=C(N)N)NC(=O)[C@@H](N)CSSC[C@@H](C(=O)O)NC(=O)[C@H](CC(=O)O)NC(=O)[C@@H]2CCCN2C(=O)CNC1=O,GI50,HCT-116 colon,> 100 µM
same,TGI,HCT-116 colon,> 100 µM
same,GI50,KM12 colon,> 100 µM
same,TGI,KM12 colon,> 100 µM
same,GI50,SK-MEL-2 melanoma,> 100 µM
same,TGI,SK-MEL-2 melanoma,> 100 µM
same,GI50,LOX IMVI melanoma,> 100 µM
same,TGI,LOX IMVI melanoma,> 100 µM
same,GI50,RXF 393 renal,> 100 µM
same,TGI,RXF 393 renal,> 100 µM
same,GI50,NCI-H23 lung,> 100 µM
same,TGI,NCI-H23 lung,> 100 µM
same,GI50,HOP-92 NSCLC,> 100 µM
same,TGI,HOP-92 NSCLC,> 100 µM
same,GI50,HCC-2998 colon,> 100 µM
same,TGI,HCC-2998 colon,> 100 µM
same,GI50,OVCAR-3 ovarian,> 100 µM
same,TGI,OVCAR-3 ovarian,> 100 µM
same,GI50,PC-3 prostate,> 100 µM
same,TGI,PC-3 prostate,> 100 µM
same,GI50,OVCAR-4 ovarian,> 100 µM
same,TGI,OVCAR-4 ovarian,> 100 µM
same,GI50,DU-145 prostate,> 100 µM
same,TGI,DU-145 prostate,> 100 µM
same,GI50,SF-539 CNS,> 100 µM
same,TGI,SF-539 CNS,> 100 µM
same,GI50,SK-MEL-28 melanoma,> 100 µM
same,TGI,SK-MEL-28 melanoma,> 100 µM
same,GI50,CCRF-CEM leukemia,> 100 µM
same,TGI,CCRF-CEM leukemia,> 100 µM
same,GI50,SN12C renal,> 100 µM
same,TGI,SN12C renal,> 100 µM
same,GI50,UO-31 renal,> 100 µM
same,TGI,UO-31 renal,> 100 µM
same,GI50,HOP-62 NSCLC,> 100 µM
same,TGI,HOP-62 NSCLC,> 100 µM
same,GI50,SR leukemia,> 100 µM
same,TGI,SR leukemia,> 100 µM
same,GI50,OVCAR-8 ovarian,> 100 µM
same,TGI,OVCAR-8 ovarian,> 100 µM
same,GI50,HCT-15 colon,> 100 µM
same,TGI,HCT-15 colon,> 100 µM
same,GI50,NCI-H522 lung,> 100 µM
same,TGI,NCI-H522 lung,> 100 µM
same,GI50,MALME-3M melanoma,93.7 µM
same,TGI,MALME-3M melanoma,> 100 µM
same,GI50,SK-MEL-5 melanoma,> 100 µM
same,TGI,SK-MEL-5 melanoma,> 100 µM
same,GI50,786-0 renal,> 100 µM
same,TGI,786-0 renal,> 100 µM
same,GI50,MDA-MB-231 breast,> 100 µM
same,TGI,MDA-MB-231 breast,> 100 µM
same,GI50,CAKI-1 renal,> 100 µM
same,TGI,CAKI-1 renal,> 100 µM
same,GI50,OVCAR-5 ovarian,> 100 µM
same,TGI,OVCAR-5 ovarian,> 100 µM
same,GI50,NCI/ADR-RES ovarian,> 100 µM
same,TGI,NCI/ADR-RES ovarian,> 100 µM
same,GI50,NCI-H322M lung,> 100 µM
same,TGI,NCI-H322M lung,> 100 µM
same,GI50,MDA-MB-435 melanoma,> 100 µM
same,TGI,MDA-MB-435 melanoma,> 100 µM
same,GI50,UACC-257 melanoma,> 100 µM
same,TGI,UACC-257 melanoma,> 100 µM
same,GI50,U251 glioblastoma,> 100 µM
same,TGI,U251 glioblastoma,> 100 µM
same,GI50,NCI-H226 lung,> 100 µM
same,TGI,NCI-H226 lung,> 100 µM
same,GI50,MCF7 breast,> 100 µM
same,TGI,MCF7 breast,> 100 µM
same,GI50,A498 renal,> 100 µM
same,TGI,A498 renal,> 100 µM
same,GI50,RPMI-8226 leukemia,> 100 µM
same,TGI,RPMI-8226 leukemia,> 100 µM
same,GI50,SW-620 colon,> 100 µM
same,TGI,SW-620 colon,> 100 µM
same,GI50,IGROV1 ovarian,> 100 µM
same,TGI,IGROV1 ovarian,> 100 µM
same,GI50,MDA-MB-468 breast,> 100 µM
same,TGI,MDA-MB-468 breast,> 100 µM
same,GI50,A549 NSCLC,> 100 µM
same,TGI,A549 NSCLC,> 100 µM
same,GI50,K-562 leukemia,> 100 µM
same,TGI,K-562 leukemia,> 100 µM
same,GI50,M14 melanoma,> 100 µM
same,TGI,M14 melanoma,> 100 µM
same,GI50,COLO 205 colon,> 100 µM
same,TGI,COLO 205 colon,> 100 µM
same,GI50,NCI-H460 NSCLC,> 100 µM
same,TGI,NCI-H460 NSCLC,> 100 µM
same,GI50,ACHN renal,> 100 µM
same,TGI,ACHN renal,> 100 µM
same,GI50,SF-295 CNS,> 100 µM
same,TGI,SF-295 CNS,> 100 µM
same,GI50,SK-OV-3 ovarian,> 100 µM
same,TGI,SK-OV-3 ovarian,> 100 µM
same,GI50,TK-10 renal,> 100 µM
same,TGI,TK-10 renal,> 100 µM
same,GI50,HL-60(TB) leukemia,> 100 µM
same,TGI,HL-60(TB) leukemia,> 100 µM
same,GI50,SF-268 CNS,> 100 µM
same,TGI,SF-268 CNS,> 100 µM
same,GI50,MOLT-4 leukemia,> 100 µM
same,TGI,MOLT-4 leukemia,> 100 µM
same,GI50,HT29 colon,> 100 µM
same,TGI,HT29 colon,> 100 µM
same,GI50,T-47D breast,> 100 µM
same,TGI,T-47D breast,> 100 µM
same,GI50,SNB-19 CNS,> 100 µM
same,TGI,SNB-19 CNS,> 100 µM
same,GI50,BT-549 breast,> 100 µM
same,TGI,BT-549 breast,> 100 µM
same,GI50,UACC-62 melanoma,80 µM
same,TGI,UACC-62 melanoma,> 100 µM
